Like-named read-outs stand apart in the source and are kept apart here.
How the values were obtained:
PC9/ER cells = experiment: Cell viability assay (CellTiter-Glo 2.0), erlotinib-resistant PC9/ER cells; type: cell-based; settings: Homo sapiens, PC-9/ER, 72 h drug treatment, read-out: Relative cell viability, IC50 PC9ER
Source text: (§1) To explore c-MET and AXL mechanisms of EGFR TKI resistance, resistant cells of the EGFR TKI hypersensitive EGFR exon 19 mutant NSCLC cell line, HCC827 and PC9 were generated by exposing these cells to increasing concentrations of EGFR TKI for over 3 months.
(§2) Gefitinib-resistant cells were referred to as HCC827/GR. […] Osimertinib-resistant cells were referred to as HCC827/OR.

HCC827/ER cells = experiment: Cell viability assay (CellTiter-Glo 2.0), erlotinib-resistant HCC827/ER cells; type: cell-based, human; settings: Homo sapiens, HCC827ER, read-out: Relative cell viability
Source text: as §1, §2

HCC827/GR cells = experiment: Cell viability assay (CellTiter-Glo 2.0), gefitinib-resistant HCC827/GR cells; type: cell-based, human; settings: Homo sapiens, HCC827, 72 h drug treatment, read-out: Relative cell viability, IC50 HCC827GR
Source text: as §1
The human cell line HCC827 was purchased from the American Type Culture Collection (Manassas, VA), and the PC9 cell line was obtained from RIKEN Cell Bank (Ibaraki, Japan). […] Gefitinib-resistant cells were referred to as HCC827/GR. […] Osimertinib-resistant cells were referred to as HCC827/OR.
(§3) Cell viability assays were carried out by plating 1,000 cells per well of HCC827 or PC9 resistant cells, respectively, into white transparent-bottom 384-well plates. The cells were treated with each TKI across a 10-dose range from 1 nM to 10,000 nM. After 72 h of drug treatment, cell viability was measured using the CellTiter-Glo 2.0 assay (Promega, Madison, WI).
as §3

HCC827/OR cells = experiment: Cell viability assay (CellTiter-Glo 2.0), osimertinib-resistant HCC827/OR cells; type: cell-based, human; settings: Homo sapiens, HCC827, 72 h drug treatment, read-out: Relative cell viability, IC50 HCC827OR
Source text: as §1, §2

[1] = Table 2, EGFR TKI resistant cells, combination with EGFR TKI
[2] = Table 2, 72 h drug treatment, EGFR TKI resistant cells, combination with EGFR TKI
[3] = Table 4, combinations of EGFR TKIs and inhibitor of Formula (I)
[4] = Table 4, 72 h drug treatment, combinations of EGFR TKIs and inhibitor of Formula (I)

SMILES | IC50 (PC9/ER cells; [1]) [µM] | IC50 (HCC827/ER cells; [2]) [µM] | IC50 (HCC827/GR cells; [1]) [µM] | IC50 (HCC827/OR cells; [1]) [µM] | IC50 (PC9/ER cells; [3]) [µM] | IC50 (HCC827/ER cells; [4]) [µM] | IC50 (HCC827/GR cells; [3]) [µM] | IC50 (HCC827/OR cells; [3]) [µM]
COCCN1CCN(C(=O)CCc2c(Oc3ccc(NC(=O)c4cn(C(C)C)c(=O)n(-c5ccc(F)cc5)c4=O)cc3F)ccnc2N)CC1 [Example 21, N-(4-(2-amino-3-(3-(4-(2-methoxyethyl)piperazin-1-yl)-3-oxopropyl)pyridin-4-yloxy)-3-fluorophenyl)-3-(4-fluorophenyl)-1-isopropyl-2,4-dioxo-1,2,3,4-tetrahydropyrimidine-5-carboxamide] | < 1 | < 1 | < 0.1 | < 1 |  |  |  | 
Cc1nc(Cn2cc(C(=O)Nc3ccc(Oc4ccnc(N)c4C#CC(C)(C)N4CCOCC4)c(F)c3)c(=O)n(-c3ccc(F)cc3)c2=O)cs1 [Example 39, N-(4-((2-amino-3-(3-methyl-3-morpholinobut-1-yn-1-yl)pyridin-4-yl)oxy)-3-fluorophenyl)-3-(4-fluorophenyl)-1-((2-methylthiazol-4-yl)methyl)-2,4-dioxo-1,2,3,4-tetrahydropyrimidine-5-carboxamide] |  |  |  |  | < 0.1 | < 0.1 | < 0.1 | < 0.1
Nc1nccc(Oc2ccc(NC(=O)c3cn(C4CCOCC4)c(=O)n(-c4ccc(F)cc4)c3=O)cc2F)c1C#CCC1CCNCC1 [Example 59, N-(4-(2-amino-3-(3-(piperidin-4-yl)prop-1-ynyl)pyridin-4-yloxy)-3-fluorophenyl)-3-(4-fluorophenyl)-2,4-dioxo-1-(tetrahydro-2H-pyran-4-yl)-1,2,3,4-tetrahydropyrimidine-5-carboxamide] |  |  |  |  | < 1 | < 1 | < 1 | < 1
CC(C)(C#Cc1c(Oc2ccc(NC(=O)c3c[nH]c(=O)n(-c4ccc(F)cc4)c3=O)cc2F)ccnc1N)N1CCNCC1 [Example 52, N-(4-(2-amino-3-(3-methyl-3-(piperazin-1-yl)but-1-ynyl)pyridin-4-yloxy)-3-fluorophenyl)-3-(4-fluorophenyl)-2,4-dioxo-1,2,3,4-tetrahydropyrimidine-5-carboxamide] |  |  |  |  | < 10 | < 10 | < 10 | > 10
CC(C)n1cc(C(=O)Nc2ccc(Oc3ccnc(N)c3C#N)c(F)c2)c(=O)n(-c2ccc(F)cc2)c1=O [Example 5, N-(4-(2-amino-3-cyanopyridin-4-yloxy)-3-fluorophenyl)-3-(4-fluorophenyl)-1-isopropyl-2,4-dioxo-1,2,3,4-tetrahydropyrimidine-5-carboxamide] | < 1 | < 0.01 | < 0.1 | < 0.1 |  |  |  | 
CC(C)(C#Cc1c(Oc2ccc(NC(=O)c3c[nH]c(=O)n(-c4ccc(F)cc4)c3=O)cc2F)ccnc1N)N1CCOCC1 [Example 50, N-(4-(2-amino-3-(3-methyl-3-morpholinobut-1-ynyl)pyridin-4-yloxy)-3-fluorophenyl)-3-(4-fluorophenyl)-2,4-dioxo-1,2,3,4-tetrahydropyrimidine-5-carboxamide] |  |  |  |  | < 0.1 | < 0.1 | < 1 | < 0.1
COCCN1CCN(C(=O)/C=C/c2c(Oc3ccc(NC(=O)c4cn(C(C)C)c(=O)n(-c5ccc(F)cc5)c4=O)cc3F)ccnc2N)CC1 [Example 4, (E)-N-(4-(2-amino-3-(3-(4-(2-methoxyethyl)piperazin-1-yl)-3-oxoprop-1-enyl)pyridin-4-yloxy)-3-fluorophenyl)-3-(4-fluorophenyl)-1-isopropyl-2,4-dioxo-1,2,3,4-tetrahydropyrimidine-5-carboxamide] | < 1 | < 0.01 | < 0.01 | < 0.01 |  |  |  | 
CN1CCC(CC#Cc2c(Oc3ccc(NC(=O)c4cn(C5CCOCC5)c(=O)n(-c5ccc(F)cc5)c4=O)cc3F)ccnc2N)CC1 [Example 60, N-(4-(2-amino-3-(3-(1-methylpiperidin-4-yl)prop-1-ynyl)pyridin-4-yloxy)-3-fluorophenyl)-3-(4-fluorophenyl)-2,4-dioxo-1-(tetrahydro-2H-pyran-4-yl)-1,2,3,4-tetrahydropyrimidine-5-carboxamide] |  |  |  |  | < 0.1 | < 0.1 | < 0.1 | < 0.1
CN(C)C(=O)Cn1cc(C(=O)Nc2ccc(Oc3ccnc(N)c3C#CC(C)(C)N3CCOCC3)c(F)c2)c(=O)n(-c2ccc(F)cc2)c1=O [Example 33, N-(4-((2-amino-3-(3-methyl-3-morpholinobut-1-yn-1-yl)pyridin-4-yl)oxy)-3-fluorophenyl)-1-(2-(dimethylamino)-2-oxoethyl)-3-(4-fluorophenyl)-2,4-dioxo-1,2,3,4-tetrahydropyrimidine-5-carboxamide] |  |  |  |  | < 1 | < 1 | < 1 | < 1
CC(C)n1cc(C(=O)Nc2ccc(Oc3ccnc(N)c3C#CC3CCN(C)CC3)c(F)c2)c(=O)n(-c2ccc(F)cc2)c1=O [Example 23, N-(4-(2-amino-3-((1-methylpiperidin-4-yl)ethynyl)pyridin-4-yloxy)-3-fluorophenyl)-3-(4-fluorophenyl)-1-isopropyl-2,4-dioxo-1,2,3,4-tetrahydropyrimidine-5-carboxamide] | < 0.01 | < 0.1 | < 0.1 | < 0.01 |  |  |  | 
CN1CCN(C(C)(C)C#Cc2c(Oc3ccc(NC(=O)c4cn(C5CCOCC5)c(=O)n(-c5ccc(F)cc5)c4=O)cc3F)ccnc2N)CC1 [Example 57, N-(4-(2-amino-3-(3-methyl-3-(4-methylpiperazin-1-yl)but-1-ynyl)pyridin-4-yloxy)-3-fluorophenyl)-3-(4-fluorophenyl)-2,4-dioxo-1-(tetrahydro-2H-pyran-4-yl)-1,2,3,4-tetrahydropyrimidine-5-carboxamide] |  |  |  |  | < 1 | < 0.1 | < 0.1 | < 1
Nc1nccc(Oc2ccc(NC(=O)c3c[nH]c(=O)n(-c4ccc(F)cc4)c3=O)cc2F)c1C#CCN1CCOCC1 [Example 51, N-(4-(2-amino-3-(3-morpholinoprop-1-ynyl)pyridin-4-yloxy)-3-fluorophenyl)-3-(4-fluorophenyl)-2,4-dioxo-1,2,3,4-tetrahydropyrimidine-5-carboxamide] |  |  |  |  | < 1 | < 1 | < 10 | < 1
COCCN1CCN(C(=O)C#Cc2c(Oc3ccc(NC(=O)c4cn(C(C)C)c(=O)n(-c5ccc(F)cc5)c4=O)cc3F)ccnc2N)CC1 [Example 2, N-(4-(2-amino-3-(3-(4-(2-methoxyethyl)piperazin-1-yl)-3-oxoprop-1-ynyl)pyridin-4-yloxy)-3-fluorophenyl)-3-(4-fluorophenyl)-1-isopropyl-2,4-dioxo-1,2,3,4-teterahydropyrimidine-5-carboxamide] | < 0.01 | < 0.01 | < 0.01 | < 0.01 |  |  |  | 
C=CCn1cc(C(=O)Nc2ccc(Oc3ccnc(N)c3C#CC(C)(C)N3CCN(C)CC3)c(F)c2)c(=O)n(CC=C)c1=O [Example 68, 1,3-diallyl-N-(4-(2-amino-3-(3-methyl-3-(4-methylpiperazin-1-yl)but-1-ynyl)pyridin-4-yloxy)-3-fluorophenyl)-2,4-dioxo-1,2,3,4-tetrahydropyrimidine-5-carboxamide] |  |  |  |  | < 10 | < 1 | < 1 | < 1
Cc1nc(Cn2cc(C(=O)Nc3ccc(Oc4ccnc(N)c4C#CCC4CCN(C)CC4)c(F)c3)c(=O)n(-c3ccc(F)cc3)c2=O)cs1 [Example 43, N-(4-((2-amino-3-(3-(1-methylpiperidin-4-yl)prop-1-yn-1-yl)pyridin-4-yl)oxy)-3-fluorophenyl)-3-(4-fluorophenyl)-1-((2-methylthiazol-4-yl)methyl)-2,4-dioxo-1,2,3,4-tetrahydropyrimidine-5-carboxamide] |  |  |  |  | < 0.1 | < 0.1 | < 0.1 | < 1
CC(C)n1cc(C(=O)Nc2ccc(Oc3ccnc(N)c3C#CC3CCNCC3)c(F)c2)c(=O)n(-c2ccc(F)cc2)c1=O [Example 15, N-(4-(2-amino-3-(piperidin-4-ylethynyl)pyridin-4-yloxy)-3-fluorophenyl)-3-(4-fluorophenyl)-1-isopropyl-2,4-dioxo-1,2,3,4-tetrahydropyrimidine-5-carboxamide] | < 0.01 | < 0.1 | < 0.1 | < 0.01 |  |  |  | 
